The results in this text go back to patent publication US10758534B2 (Vertex Pharmaceuticals Incorporated, priority 2014, dated 2020).

T1 sequence (P13569 with tags, fused parts or gaps DEL508-508): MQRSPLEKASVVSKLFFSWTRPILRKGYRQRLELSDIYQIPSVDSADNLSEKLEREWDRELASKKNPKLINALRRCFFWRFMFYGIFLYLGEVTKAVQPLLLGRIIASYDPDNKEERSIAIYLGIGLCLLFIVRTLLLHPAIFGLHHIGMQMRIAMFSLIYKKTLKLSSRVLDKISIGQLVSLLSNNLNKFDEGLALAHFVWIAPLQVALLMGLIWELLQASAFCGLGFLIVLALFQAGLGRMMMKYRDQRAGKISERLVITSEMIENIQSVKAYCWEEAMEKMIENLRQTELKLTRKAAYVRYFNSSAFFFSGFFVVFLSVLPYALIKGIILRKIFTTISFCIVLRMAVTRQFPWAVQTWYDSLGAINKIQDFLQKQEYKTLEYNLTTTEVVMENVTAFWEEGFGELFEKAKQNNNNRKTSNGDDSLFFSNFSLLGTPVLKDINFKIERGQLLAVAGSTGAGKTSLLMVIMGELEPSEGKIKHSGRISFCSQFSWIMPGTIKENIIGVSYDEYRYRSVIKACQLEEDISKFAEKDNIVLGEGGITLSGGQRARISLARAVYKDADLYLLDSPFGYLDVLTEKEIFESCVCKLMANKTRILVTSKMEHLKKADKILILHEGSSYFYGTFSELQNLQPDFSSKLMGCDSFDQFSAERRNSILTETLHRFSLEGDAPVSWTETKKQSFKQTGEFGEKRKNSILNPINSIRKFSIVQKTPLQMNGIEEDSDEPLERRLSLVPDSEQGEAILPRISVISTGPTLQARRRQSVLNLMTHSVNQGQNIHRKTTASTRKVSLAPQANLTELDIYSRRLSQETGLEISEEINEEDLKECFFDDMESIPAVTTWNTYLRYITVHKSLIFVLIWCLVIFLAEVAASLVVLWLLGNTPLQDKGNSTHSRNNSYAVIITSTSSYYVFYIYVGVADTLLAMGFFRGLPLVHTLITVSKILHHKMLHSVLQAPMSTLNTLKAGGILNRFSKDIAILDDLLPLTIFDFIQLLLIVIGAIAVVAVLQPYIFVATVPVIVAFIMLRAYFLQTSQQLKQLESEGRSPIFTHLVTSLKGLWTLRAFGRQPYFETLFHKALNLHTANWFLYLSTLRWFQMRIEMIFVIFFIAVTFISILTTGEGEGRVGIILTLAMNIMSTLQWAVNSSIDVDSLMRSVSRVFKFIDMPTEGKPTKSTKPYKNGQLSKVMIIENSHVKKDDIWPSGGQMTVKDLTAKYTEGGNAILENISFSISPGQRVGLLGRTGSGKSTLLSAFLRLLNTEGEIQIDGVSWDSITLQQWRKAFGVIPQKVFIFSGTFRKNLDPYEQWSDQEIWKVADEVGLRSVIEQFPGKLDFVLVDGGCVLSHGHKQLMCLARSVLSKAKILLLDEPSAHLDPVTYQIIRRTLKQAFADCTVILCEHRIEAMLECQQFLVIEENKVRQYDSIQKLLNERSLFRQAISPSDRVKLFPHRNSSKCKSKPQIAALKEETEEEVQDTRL

The experiment has as its target T1, F508del (Homo sapiens, UniProt P13569, DEL508-508).
T1 construct: expressed in transfected cells
Kind of experiment: Protocol 1: membrane potential optical assay (FLIPR III, voltage sensing dye), identification of potentiator compounds. The class given is cell-based. The following applies: Table 3, compounds of Table 1. In a few lines:
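Gating potentiation is read as a membrane-potential fluorescence change (FLIPR III, voltage-sensing dye) after one forskolin addition under a Cl− gradient, with gluconate replacing chloride, pH 7.4. Cells are F508del-expressing NIH3T3 mouse fibroblasts held 24 h at 27 °C and exposed to compound before dye loading.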
Take `CC1CN(c2ncccc2C(=O)NS(=O)(=O)c2cccc(O[C@H](C)c3ccccc3)n2)C(C)(C)C1` (stereo partly drawn) [Compound 1842, N—[[6-[(1R)-1-phenylethoxy]-2-pyridyl]sulfonyl]-2-(2,2,4-trimethylpyrrolidin-1-yl)pyridine-3-carboxamide]: the EC30 entry is recorded as “+++ (“+++” means <3 uM)”. On to `COc1ccc(-c2ccc(C(=O)NS(=O)(=O)c3cccnc3N)c(N3C[C@@H](C)CC3(C)C)n2)cc1F` [Compound 1851, N-[(2-amino-3-pyridyl)sulfonyl]-6-(3-fluoro-4-methoxy-phenyl)-2-[(4S)-2,2,4-trimethylpyrrolidin-1-yl]pyridine-3-carboxamide], for which the EC30 entry is reported as “+++ (“+++” means <3 uM)”. `Cc1ccc(-c2ccc(C(=O)NS(=O)(=O)c3cccc(N)n3)c(N3C[C@@H](C)CC3(C)C)n2)c(F)c1` [Compound 1910, N-[(6-amino-2-pyridyl)sulfonyl]-6-(2-fluoro-4-methyl-phenyl)-2-[(4S)-2,2,4-trimethylpyrrolidin-1-yl]pyridine-3-carboxamide]: the EC30 entry is recorded as “+++ (“+++” means <3 uM)”. For `C[C@@H]1CN(c2nc(-c3cc(O)cc(F)c3)ccc2C(=O)NS(=O)(=O)c2ccccc2)C(C)(C)C1` [Compound 1538, N-(benzenesulfonyl)-6-(3-fluoro-5-hydroxy-phenyl)-2-[(4S)-2,2,4-trimethylpyrrolidin-1-yl]pyridine-3-carboxamide], the EC30 result is on record as “+ (“+” means greater than 10 uM)”. For `CC1CCN(c2nc3c(cc2C(=O)NS(=O)(=O)c2ccc[nH]c2=O)CCCC3(C)C)CC1` [Compound 1195, 8,8-dimethyl-2-(4-methyl-1-piperidyl)-N-[(2-oxo-1H-pyridin-3-yl)sulfonyl]-6,7-dihydro-5H-quinoline-3-carboxamide], the EC30 entry was “+ (“+” means greater than 10 uM)”. For the compound `CC(C)C(C)c1ccc(C(=O)NS(=O)(=O)c2cccc(N)n2)c(N2C[C@@H](C)CC2(C)C)n1` (stereo partly drawn) [Compound 1489, N-[(6-amino-2-pyridyl)sulfonyl]-6-(1,2-dimethylpropyl)-2-[(4S)-2,2,4-trimethylpyrrolidin-1-yl]pyridine-3-carboxamide], the EC30 result is recorded as “+++ (“+++” means <3 uM)”. Take `CC1CN(c2ncccc2C(=O)NS(=O)(=O)c2cccc(NCc3ccccc3Cl)n2)C(C)(C)C1` (stereo not drawn) [Compound 1983, N—[[6-[(2-chlorophenyl)methylamino]-2-pyridyl]sulfonyl]-2-(2,2,4-trimethylpyrrolidin-1-yl)pyridine-3-carboxamide]: the EC30 result was “+++ (“+++” means <3 uM)”. As to `C[C@@H]1CN(c2nc(-c3cc(F)cc(F)c3)ccc2C(=O)NS(=O)(=O)N2CC[C@H](N)C2)C(C)(C)C1` [Compound 1716, N-[(3S)-3-aminopyrrolidin-1-yl]sulfonyl-6-(3,5-difluorophenyl)-2-[(4S)-2,2,4-trimethylpyrrolidin-1-yl]pyridine-3-carboxamide], the EC30 entry is “++ (“++” means between 3 uM and 10 uM)”. For the compound `Cc1cc(OCC(C)C)nc(-c2ccc(C(=O)NS(=O)(=O)c3cccc(N)n3)c(N3C[C@@H](C)CC3(C)C)n2)c1` [Compound 1656, N-[(6-amino-2-pyridyl)sulfonyl]-6-(6-isobutoxy-4-methyl-2-pyridyl)-2-[(4S)-2,2,4-trimethylpyrrolidin-1-yl]pyridine-3-carboxamide], the EC30 result is recorded as “+++ (“+++” means <3 uM)”. As for `CC1CN(c2ncccc2C(=O)NS(=O)(=O)c2cccc(Nc3cc(F)ccc3Cl)n2)C(C)(C)C1` (stereo not drawn) [Compound 1941, N—[[6-(2-chloro-5-fluoro-anilino)-2-pyridyl]sulfonyl]-2-(2,2,4-trimethylpyrrolidin-1-yl)pyridine-3-carboxamide], the EC30 result is “+++ (“+++” means <3 uM)”. Regarding `CC1CN(c2ncccc2C(=O)NS(=O)(=O)c2cccc(OC3CCCCC3)n2)C(C)(C)C1` (stereo not drawn) [Compound 1908, N—[[6-(cyclohexoxy)-2-pyridyl]sulfonyl]-2-(2,2,4-trimethylpyrrolidin-1-yl)pyridine-3-carboxamide], the EC30 result was “+++ (“+++” means <3 uM)”. Take `CC(C)Oc1ccc(-c2ccc(C(=O)NS(=O)(=O)c3cccc(N)n3)c(N3C[C@@H](C)C[C@H](C)C3)n2)cn1` [Compound 1136, N-[(6-amino-2-pyridyl)sulfonyl]-2-[(3S,5S)-3,5-dimethyl-1-piperidyl]-6-(6-isopropoxy-3-pyridyl)pyridine-3-carboxamide]: the EC30 result is reported as “+++ (“+++” means <3 uM)”. In the case of `COc1ncc(-c2ccc(C(=O)NS(=O)(=O)c3nccnc3N)c(Oc3c(C)cc(C)cc3C)n2)cc1C` [Compound 1249, N-(3-aminopyrazin-2-yl)sulfonyl-6-(6-methoxy-5-methyl-3-pyridyl)-2-(2,4,6-trimethylphenoxy)pyridine-3-carboxamide], the EC30 entry is recorded as “+++ (“+++” means <3 uM)”. Then `CC(C)(C)c1ccc(C(=O)NS(=O)(=O)c2cccc(N)n2)c(N2CCC(C(C)(C)O)CC2)n1` [Compound 1038, N-[(6-amino-2-pyridyl)sulfonyl]-6-tert-butyl-2-[4-(1-hydroxy-1-methyl-ethyl)-1-piperidyl]pyridine-3-carboxamide], with “++ (“++” means between 3 uM and 10 uM)”; and `CCOCCOCCOc1ncc(-c2ccc(C(=O)NS(=O)(=O)c3cccnc3N)c(N3C[C@@H](C)CC3(C)C)n2)cc1C` [Compound 1783, N-[(2-amino-3-pyridyl)sulfonyl]-6-[6-[2-(2-ethoxyethoxy)ethoxy]-5-methyl-3-pyridyl]-2-[(4S)-2,2,4-trimethylpyrrolidin-1-yl]pyridine-3-carboxamide], with “+++ (“+++” means <3 uM)”. Regarding `Cc1ccc(C)c(-c2ccc(C(=O)NS(=O)(=O)N3CC[C@H](N)C3)c(N3C[C@@H](C)CC3(C)C)n2)c1` [Compound 1736, N-[(3S)-3-aminopyrrolidin-1-yl]sulfonyl-6-(2,5-dimethylphenyl)-2-[(4S)-2,2,4-trimethylpyrrolidin-1-yl]pyridine-3-carboxamide], the EC30 entry was “++ (“++” means between 3 uM and 10 uM)”. `CC1CN(c2ncccc2C(=O)NS(=O)(=O)c2cccc(N3Cc4ccccc4C3)n2)C(C)(C)C1` (stereo not drawn) [Compound 1838, N-[(6-isoindolin-2-yl-2-pyridyl)sulfonyl]-2-(2,2,4-trimethylpyrrolidin-1-yl)pyridine-3-carboxamide]: the EC30 result is “+++ (“+++” means <3 uM)”.

Turning to `CC(C)COc1cc(F)cc(-c2ccc(C(=O)NS(=O)(=O)c3ccn[nH]3)c(N3CCCC3C)n2)c1` (stereo not drawn) [Compound 1142, 6-(3-fluoro-5-isobutoxy-phenyl)-2-(2-methylpyrrolidin-1-yl)-N-(1H-pyrazol-5-ylsulfonyl)pyridine-3-carboxamide], the EC30 result was “++ (“++” means between 3 uM and 10 uM)”. In the case of `C[C@@H]1CN(c2nc(C3CC(C)(C)CCC3O)ccc2C(=O)NS(=O)(=O)c2cccc(N)n2)C(C)(C)C1` (stereo partly drawn) [Compound 1439, N-[(6-amino-2-pyridyl)sulfonyl]-6-(2-hydroxy-5,5-dimethyl-cyclohexyl)-2-[(4S)-2,2,4-trimethylpyrrolidin-1-yl]pyridine-3-carboxamide], the EC30 entry was “++ (“++” means between 3 uM and 10 uM)”. Turning to `Cc1cc(C)c(CN2CCc3ccccc3CC2C(=O)NS(=O)(=O)c2ccccc2)c(C)c1` (stereo not drawn) [Compound 1039, N-(benzenesulfonyl)-3-[(2,4,6-trimethylphenyl)methyl]-1,2,4,5-tetrahydro-3-benzazepine-4-carboxamide], the EC30 result was “+++ (“+++” means <3 uM)”.

For the compound `Cc1cc(C)c(Oc2nc(C(C)(C)C)ccc2C(=O)NS(=O)(=O)c2nccnc2N)c(C)c1` [Compound 1208, N-(3-aminopyrazin-2-yl) sulfonyl-6-tert-butyl-2-(2,4,6-trimethylphenoxy)pyridine-3-carboxamide], the EC30 result was “+++ (“+++” means <3 uM)”. For the compound `CCC1CCCN1c1nc(-c2ccc(OC(C)C)nc2)ccc1C(=O)NS(=O)(=O)c1cccc(N)n1` (stereo not drawn) [Compound 1087, N-[(6-amino-2-pyridyl)sulfonyl]-2-(2-ethylpyrrolidin-1-yl)-6-(6-isopropoxy-3-pyridyl)pyridine-3-carboxamide], the EC30 result is recorded as “+++ (“+++” means <3 uM)”. For the compound `CC1CN(c2ncccc2C(=O)NS(=O)(=O)c2cccc(OC(C)(C)C)n2)C(C)(C)C1` (stereo not drawn) [Compound 1718, N-[(6-tert-butoxy-2-pyridyl)sulfonyl]-2-(2,2,4-trimethylpyrrolidin-1-yl)pyridine-3-carboxamide], the EC30 entry is “+++ (“+++” means <3 uM)”.

For the compound `COc1cc(C)cc(Oc2cccc(S(=O)(=O)NC(=O)c3cccnc3N3CC(C)CC3(C)C)n2)c1` (stereo not drawn) [Compound 1719, N—[[6-(3-methoxy-5-methyl-phenoxy)-2-pyridyl]sulfonyl]-2-(2,2,4-trimethylpyrrolidin-1-yl)pyridine-3-carboxamide], the EC30 entry is given as “+++ (“+++” means <3 uM)”. In the case of `CC(C)COc1cc(F)cc(-c2ccc(C(=O)NS(=O)(=O)N3CCCC3)c(N3C[C@@H](C)CC3(C)C)n2)c1` [Compound 1619, 6-(3-fluoro-5-isobutoxy-phenyl)-N-pyrrolidin-1-ylsulfonyl-2-[(4S)-2,2,4-trimethylpyrrolidin-1-yl]pyridine-3-carboxamide], the EC30 entry is given as “+++ (“+++” means <3 uM)”. For `COc1ccc(-c2ccc(C(=O)NS(=O)(=O)c3cccc(N)n3)c(Oc3c(C)cc(C)cc3C)n2)c(F)c1` [Compound 956, N-[(6-amino-2-pyridyl)sulfonyl]-6-(2-fluoro-4-methoxy-phenyl)-2-(2,4,6-trimethylphenoxy)pyridine-3-carboxamide], the EC30 entry was “+++ (“+++” means <3 uM)”. Consider `C[C@@H]1CN(c2nc(-c3ccc(F)cc3F)ccc2C(=O)NS(=O)(=O)N2CC[C@H](N)C2)C(C)(C)C1` [Compound 1947, N-[(3S)-3-aminopyrrolidin-1-yl]sulfonyl-6-(2,4-difluorophenyl)-2-[(4S)-2,2,4-trimethylpyrrolidin-1-yl]pyridine-3-carboxamide], for which the EC30 result was “++ (“++” means between 3 uM and 10 uM)”.
